Results: patent US20250066310A1, “MULTI-SUBSTITUTED URACIL DERIVATIVE AND PREPARATION METHOD THEREFOR AND APPLICATION THEREOF” (HANGZHOU ADAMERCK PHARMLABS INC., priority 2021, published 2025)
Marks after values point to notes of the source that are not given here.

What was measured:
ICR mice = assay: Effect on in vivo bleeding time in mice (tail cut)
Description: A normal control group (blank), positive control group (clopidogrel) and experimental groups were set up with 10 ICR mice (male, weighed about 25 g) in each group. Animals in each group were administered the corresponding drug solution by oral gavage (i.g.) at 0.1 ml/10 g body weight, and the blank control group was given distilled water, once daily for 4 days. On the 4th day, 1 h after the administration of the drug, the animals were anesthetized by intraperitoneal injection of sodium barbiturate at a dose of about 50 mg/kg, and 20 min later, the tails of the mice were cut at a distance of 3 mm from the tip of the tail, and at regular intervals, absorbent paper was used to dip the blood at the severed tails until no blood exuded, which was recorded as the bleeding time, and the results of the experiment were shown in Table 2.
Calculation equation for prolongation of bleeding time: […]

[1] = system: mice injected with ellagic acid via the tail vein; assay: Effect on in vivo clotting time in mice (ellagic acid tail vein injection); conditions: Mus musculus, iv, 100 mg/kg i.g. for 4 days, ellagic acid i.v. 1 h after last dose, vs model group, read-out: Clotting time prolongation (%)
Description: The control and model groups were gavaged with distilled water, and the positive clopidogrel group, and the test substance group were gavaged orally (i.g.) with drug solution in a volume of 0.1 mL/10 g for 4 consecutive days. 1 h after the last administration, all groups were injected with 0.15 mL/10 g of 0.3% ellagic acid solution via tail vein injection except for the blank group which was injected with physiological saline: 0.1 ml/10 g. After 5 min, glass capillaries were used for blood collection through the retro-orbital venous plexus, and the appearance time of coagulation filaments was recorded by glass capillaries at 10-second intervals.
Calculation equation for prolongation of clotting time:
Prolongation of clotting time (%)=[(mean value of clotting time in blank or administered group/mean value of clotting time in model group)−1]×100%

[2] = system: rats with myocardial ischemia-reperfusion injury; assay: Myocardial ischemia-reperfusion injury caused by coronary artery ligation in rats; assay type: in vivo; conditions: x ± s, n = 8
Description: Experimental Methods: A model of myocardial ischemia/reperfusion (MI/R) injury caused by coronary artery ligation was established in rats, and animals were grouped into high-dose (20 mg/kg), medium-dose (10 mg/kg), low-dose (5 mg/kg) of the test drug, clopidogrel (7.5 mg/kg), sham, and model groups. Equal volume of 0.5% CMC-Na was administered at 0.5 ml/100 g body weight in both sham and model groups. The drug was administered by gavage (i.g.) once a day for 5 consecutive days. Modeling was performed 30 min after the last administration, and after modeling, 8 successfully modeled rats were selected from each group for subsequent experiments. The sham group was placed a wire under the left anterior descending branch of the coronary artery according to the model preparation method without ligation, and the other groups were modeled according to the model preparation method. The effects of the test drugs on the cardiac infarction rate and the biochemical indexes of creatine kinase (CK), lactate dehydrogenase (LDH), malondialdehyde (MDA), and superoxide dismutase (SOD) in plasma were detected, and TTC staining of the heart was performed to detect the effects of the test drugs on the area of myocardial infarction in MI/R rats.

[3] = system: acute inflammatory response caused by ellagic acid (serum cytokines); assay: Antibody microarray detection of serum factors in ellagic acid model mice; assay type: in vivo, ICR mice; parameters: TNFa / IL-6 / IL-1b / IL-5 / IL-13 / IL-1α / IL-1β / IL-2 / IL-3 / IL-4 / IFNg / CD40: unit not given here
Description: Experimental methods: ICR male mice, weighed about 25 g, were randomly divided into four groups: normal group, ellagic acid model group, 1-1 group, and 1-22 group, with four mice in each group. Mice in 1-1 group and 1-22 group were given 1-1, 100 mg/kg and 1-22, 100 mg/kg by gavage once a day respectively. 1 h after the third administration, except for the normal control group, the other three groups of mice were injected into the tail vein with 0.10 mL/10 g of 0.3% ellagic acid saline solution, and 1 h after injection, whole blood was collected from each animal, and centrifuged (3,000 rpm/min) for 10 min after 30 min of standing, and then centrifuged to obtain the serum. The serum from each group of animal was mixed in an EP tube, transported at −80° C., and sent for antibody microarray detection.

[4] = system: rats with focal permanent cerebral ischemia (MCAO); assay: Focal permanent cerebral ischemic injury (MCAO), administration from 3 h post-ischemia; assay type: in vivo, SD rats
[5] = 100 mg/kg i.g. once daily for 4 days
[6] = Table 16, pooled serum, 100 mg/kg by gavage
[7] = Table 17, pooled serum, 100 mg/kg by gavage
[8] = Table 18, pooled serum, 100 mg/kg by gavage
[9] = Table 19, pooled serum, 100 mg/kg by gavage

SMILES | Bleeding time prolongation (%) (ICR mice; [5]) | change in vivo at 100 mg/kg [1] | also measured
CC(C)OC(=O)CCNC(=O)CCNc1cc(=O)n(Cc2ccccc2)c(=O)n1Cc1ccccc1 [Compound 1-26] | −13.30% | 40.4% | –
CC(C)OC(=O)CCNC(=O)CCNc1cc(=O)n(C)c(=O)n1Cc1cc(F)ccc1C#N [Compound 1-13] | 15.60% | 39.8% | –
CCOC(=O)CCNC(=O)CCNc1cc(=O)n(Cc2cccnc2)c(=O)n1Cc1cccnc1 [Compound 1-55] | −3.10% | 38.6% | –
CC(C)OC(=O)CCNC(=O)CCNc1cc(=O)n(Cc2cccnc2)c(=O)n1Cc1cccnc1 [Compound 1-34] | −2.10% | 53.5% | –
CCOC(=O)CCNC(=O)CCNc1cc(=O)n(C)c(=O)n1Cc1cc(F)ccc1C#N [Compound 1-18] | 13.30% | 42.9% | –
CC1CCC(C(C)C)C(OC(=O)CCNC(=O)CCNc2cc(=O)n(C)c(=O)n2Cc2cccnc2)C1 (centres unmarked) [Compound 1-32] | −9.00% | 48.4% | –
Cc1cccc(C)c1OC(=O)CCNC(=O)CCNc1cc(=O)n(C)c(=O)n1Cc1cc(F)ccc1C#N [Compound 1-19] | −38.00% | 60.4% | –
Cn1c(NCCCCCC(=O)NCCCCCC(=O)O)cc(=O)n(C)c1=O [Compound 1-24] | 20.60% | 36.7% | –
CC1CCC(C(C)C)C(OC(=O)CCNC(=O)CCNc2cc(=O)n(C)c(=O)n2Cc2cc(F)ccc2C#N)C1 (centres unmarked) [Compound 1-16] | 11.00% | 38% | –
CC(C)OC(=O)CCNC(=O)CCN(C)c1cc(=O)n(C)c(=O)n1Cc1cc(F)ccc1C#N [Compound 1-45] | 18.60% | 43.1% | –
Cn1c(=O)cc(NCCC(=O)NCCC(=O)Oc2ccccc2)n(Cc2ccccc2)c1=O [Compound 1-30] | −9.70% | 39.8% | –
CCOC(=O)CCCCCNC(=O)CCCCCNc1cc(=O)n(C)c(=O)n1C [Compound 1-23] | −19.20% | 38.1% | –
CCOC(=O)CCCCNC(=O)CCCCNC(=O)CCCCNc1cc(=O)n(C)c(=O)n1C [Compound 1-48] | 26.40% | 38.6% | –
COC(=O)[C@H](c1ccccc1Cl)N1CCc2sccc2C1 [Clopidogrel, clopidogrel, reference compound] | – | 36.8% | Cardiac infarction rate (%) ([2]; 7.5 mg/kg i.g. once a day for 5 days): 14.29 ± 6.82 %; Pathological Score ([2]; myocardium, 7.5 mg/kg i.g.): 1.88 ± 0.64; CK (U/mL) ([2]; plasma, 7.5 mg/kg i.g.): 0.32 ± 0.20 U/mL; LDH (U/L) ([2]; plasma, 7.5 mg/kg i.g.): 8522.72 ± 626.17 U/L; MDA ([2]; plasma, 7.5 mg/kg i.g.): 15.90 ± 1.37 nmol/mL; SOD (U/mL) ([2]; plasma, 7.5 mg/kg i.g.): 40.92 ± 1.67 U/mL; Bleeding time prolongation (%) (ICR mice; 15 mg/kg i.g. once daily for 4 days): >579.89%
CCOC(=O)CCNC(=O)CCNc1cc(=O)n(C2CCCC2)c(=O)n1C1CCCC1 [Compound 1-54] | 13.00% | 37.2% | –
Cn1c(NCCC(=O)NCCC(=O)OC2CC3CCC2(C)C3(C)C)cc(=O)n(C)c1=O (centres unmarked) [Compound 1-4] | 16.40% | 39.7% | –
CCOC(=O)CCNC(=O)[C@H](Nc1cc(=O)n(C)c(=O)n1C)C(C)CC (some centres unmarked) [Compound 1-22] | 19.83% | 40.7% | IL-6 [3, 6]: 10,273.27*; RANTES/ccl5 [3, 6]: 1,909.28*; TNFa [3, 6]: 290.22*; IL-1b ([3]; Table 16, pooled serum, 100 mg/kg by gavage once a day x3, 1 h after ellagic acid): 268.76*; IL-1α [3, 7]: 837.49*; IL-1β [3, 7]: 268.76*; IL-2 [3, 7]: 464.49; IL-3 [3, 7]: 872.26*; IL-4 [3, 7]: 961.11*; IL-5 [3, 7]: 227.55*; IL-6 [3, 7]: 10,273.27*; IL-13 [3, 7]: 620.73*; Eotaxin/CCL11 [3, 8]: 3,096.53*; MCP1/CCL2 [3, 8]: 2,231.63*; MIP-3a/CCL20 [3, 8]: 1,252.13*; RANTES/CCL5 [3, 8]: 1,909.28*; CD40 [3, 9]: 509.56*; IFNg [3, 9]: 218.11*; number of down-regulated differential proteins ([3]; interleukin factors (Table 17), compared with the model group): seven
CCOC(=O)CCNC(=O)CCNc1cc(=O)[nH]c(=N)[nH]1 [Compound 1-39] | 16.90% | 37.2% | –
CCOC(=O)CCNC(=O)CCNc1cc(=O)n(C)c(=O)n1Cc1ccccc1C#N [Compound 1-17] | −6.20% | 44.1% | –
Cn1c(=O)cc(NCCC(=O)NCCC(=O)Oc2ccccc2)n(Cc2cc(F)ccc2C#N)c1=O [Compound 1-15] | −4.70% | 42% | –
Cn1c(NCCC(=O)NCCC(=O)OC2CC2)cc(=O)n(C)c1=O [Compound 1-5] | −13.60% | 41.9% | –
Cc1cccc(C)c1OC(=O)CCNC(=O)CCNc1cc(=O)n(C)c(=S)n1C [Compound 1-11] | 20.60% | 39.3% | –
CC(C)OC(=O)CCNC(=O)CCNc1cc(=O)n(C)c(=O)n1C [Compound 1-2] | 6.50% | 49.9% | –
Cn1c(NCCC(=O)NCCC(=O)OC2CCCCC2)cc(=O)n(C)c1=O [Compound 1-6] | 4.80% | 42.4% | –
CCCCC1OC(=O)c2ccccc21 (centres unmarked) [Butylphthalide, butylphthalide, reference compound] | – | – | Number of survivors after 15 days animal ([4]; 60 mg/kg by gavage once a day, 15 enrolled): 7; Mortality (%) ([4]; 15-day, 60 mg/kg by gavage): 53.33%; Neurological function score on day 15 ([4]; Bederson's method, 60 mg/kg): 1.25; Weight on day 1 ([4]; mean body weight, 60 mg/kg): 281.00 g; Weight on day 5 ([4]; mean body weight, 60 mg/kg): 234.27 g; Weight on day 15 ([4]; mean body weight, 60 mg/kg): 276.75 g
CCOC(=O)[C@H](NC(=O)CCNc1cc(=O)n(C)c(=O)n1C)C(C)C [Compound 1-42] | −13.40% | 41.4% | –
CCOC(=O)CCNC(=O)[C@@H](Nc1cc(=O)n(C)c(=O)n1C)C(C)CC (some centres unmarked) [Compound 1-37] | 48.80% | 32.6% | –
Cn1c(NCCC(=O)NCCC(=O)Oc2ccccc2)cc(=O)n(C)c1=O [Compound 1-7] | 15.10% | 41.7% | –
CCOC(=O)CCCCCNC(=O)CCCCCNc1cc(=O)[nH]c(=O)[nH]1 [Compound 1-38] | 28.40% | 37.5% | –
CC(C)OC(=O)CCNC(=O)CCNc1cc(=O)n(C)c(=O)n1Cc1cccnc1 [Compound 1-27] | 23.50% | 39.5% | –
